Results as given in paper PMC6429214, “Design, Synthesis and Biological Evaluation of Isoxazole-Based CK1 Inhibitors Modified with Chiral Pyrrolidine Scaffolds” (Molecules, 2019).

What was measured:
TRK-B = molecular target: T1, TRK-B (Homo sapiens, UniProt Q16620); assay: 33PanQinase panel; assay type: biochemical; conditions: read-out: Residual Activity (%)
T1 construct: purchased ProQinase
Description: (§1) Figure 5 Dendrogram representation of the selectivity profile of 29d at a concentration of 1 μM in a panel of 320 wild-type kinases (ProQinase, Freiburg, Germany). The residual kinase activity was determined compared to DMSO control. Images were generated using TREEspot Software Tool, DISCOVERX CORPORATION 2010.
(§2) Figure S1. X-ray crystal structure of intermediate compound 25d (ORTEP drawing with ellipsoids at 30% probability). CCDC 1589043 contains the supplementary crystallographic data for this paper. The data can be obtained free of charge from The Cambridge Crystallographic Data Centre via www.ccdc.cam.ac.uk/structures.
(§3) Table S1 Data collection, structure refinement and Ramachrandran plot results of protein crystallization of CK1δ in complex with compound 30a and 30b, respectively.
(§4) Root-mean-square deviations
(§5) Additionally allowed 2.6 2.2
(§6) Table S2. Selectivity profile of compound 29d. The inhibitor has been screened at a concentration of 1 µM over a panel of 320 wild-type protein kinases by ProQinase GmbH (Freiburg, Germany) using an activity-based radiometric 33PanQinase® assay. Results are presented as percentage of residual kinase activity relative to […]
(§7) control. The final DMSO concentration was 1 % in each reaction-mix. Classification of protein kinase families refers to Manning et al. (Manning, G.; Whyte, D. B.; Martinez, R.; Hunter, T.; Sudarsanam, S. The Protein Kinase Complement of the Human Genome. Science 2002, 298, 1912–1934): AGC = containing PKA, PKG, PKC families; […] = containing Cdk, MAPK, GSK3, CLK families; STE = homologs of yeast sterile 7, sterile 11, sterile 20 kinases; TK = tyrosine kinase; TKL = tyrosine kinase-like.
(§8) Kinase name Kinase family Residual Activity (%)

VEGF-R2 = molecular target: T2, VEGF-R2 (Homo sapiens, UniProt P35968); assay: 33PanQinase panel; assay type: biochemical; conditions: VEGF-R2, 1 µM; read-out: Residual Activity (%)
T2 construct: purchased ProQinase
Description: as §1, §2, §3, §4, §5, §6, §7, §8

MAP3K11 = molecular target: T3, MAP3K11 (Homo sapiens, UniProt Q16584); assay: 33PanQinase panel; assay type: biochemical; conditions: MAP3K11, 1 µM; read-out: Residual Activity (%)
T3 construct: purchased ProQinase
T3 sequence (Q16584 whole entry): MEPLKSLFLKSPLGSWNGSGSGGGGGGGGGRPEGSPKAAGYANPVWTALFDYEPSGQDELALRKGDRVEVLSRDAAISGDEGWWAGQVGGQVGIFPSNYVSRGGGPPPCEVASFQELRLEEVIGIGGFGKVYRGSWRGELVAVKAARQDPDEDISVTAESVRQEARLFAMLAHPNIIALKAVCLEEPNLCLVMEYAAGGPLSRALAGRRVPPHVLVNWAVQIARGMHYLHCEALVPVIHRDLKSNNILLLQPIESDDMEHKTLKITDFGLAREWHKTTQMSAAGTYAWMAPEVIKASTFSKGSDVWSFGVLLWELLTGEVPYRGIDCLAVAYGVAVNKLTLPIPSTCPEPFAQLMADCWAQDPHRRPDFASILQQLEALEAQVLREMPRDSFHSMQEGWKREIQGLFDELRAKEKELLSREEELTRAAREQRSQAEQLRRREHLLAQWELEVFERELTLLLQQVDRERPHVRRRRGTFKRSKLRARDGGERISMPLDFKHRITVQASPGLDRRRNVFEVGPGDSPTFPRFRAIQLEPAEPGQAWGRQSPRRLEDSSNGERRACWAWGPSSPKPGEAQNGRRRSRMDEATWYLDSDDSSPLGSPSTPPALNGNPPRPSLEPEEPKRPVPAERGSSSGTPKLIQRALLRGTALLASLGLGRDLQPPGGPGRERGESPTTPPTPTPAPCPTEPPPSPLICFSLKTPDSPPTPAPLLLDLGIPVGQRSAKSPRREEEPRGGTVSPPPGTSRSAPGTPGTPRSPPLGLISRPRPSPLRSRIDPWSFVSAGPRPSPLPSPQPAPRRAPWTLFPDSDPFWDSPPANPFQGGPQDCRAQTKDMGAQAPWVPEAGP
Description: as §1, §2, §3, §4, §5, §6, §7, §8

RON = molecular target: T4, RON (Homo sapiens, UniProt Q04912); assay: 33PanQinase panel; assay type: biochemical; conditions: read-out: Residual Activity (%)
T4 construct: purchased ProQinase
T4 sequence (Q04912 25-1400): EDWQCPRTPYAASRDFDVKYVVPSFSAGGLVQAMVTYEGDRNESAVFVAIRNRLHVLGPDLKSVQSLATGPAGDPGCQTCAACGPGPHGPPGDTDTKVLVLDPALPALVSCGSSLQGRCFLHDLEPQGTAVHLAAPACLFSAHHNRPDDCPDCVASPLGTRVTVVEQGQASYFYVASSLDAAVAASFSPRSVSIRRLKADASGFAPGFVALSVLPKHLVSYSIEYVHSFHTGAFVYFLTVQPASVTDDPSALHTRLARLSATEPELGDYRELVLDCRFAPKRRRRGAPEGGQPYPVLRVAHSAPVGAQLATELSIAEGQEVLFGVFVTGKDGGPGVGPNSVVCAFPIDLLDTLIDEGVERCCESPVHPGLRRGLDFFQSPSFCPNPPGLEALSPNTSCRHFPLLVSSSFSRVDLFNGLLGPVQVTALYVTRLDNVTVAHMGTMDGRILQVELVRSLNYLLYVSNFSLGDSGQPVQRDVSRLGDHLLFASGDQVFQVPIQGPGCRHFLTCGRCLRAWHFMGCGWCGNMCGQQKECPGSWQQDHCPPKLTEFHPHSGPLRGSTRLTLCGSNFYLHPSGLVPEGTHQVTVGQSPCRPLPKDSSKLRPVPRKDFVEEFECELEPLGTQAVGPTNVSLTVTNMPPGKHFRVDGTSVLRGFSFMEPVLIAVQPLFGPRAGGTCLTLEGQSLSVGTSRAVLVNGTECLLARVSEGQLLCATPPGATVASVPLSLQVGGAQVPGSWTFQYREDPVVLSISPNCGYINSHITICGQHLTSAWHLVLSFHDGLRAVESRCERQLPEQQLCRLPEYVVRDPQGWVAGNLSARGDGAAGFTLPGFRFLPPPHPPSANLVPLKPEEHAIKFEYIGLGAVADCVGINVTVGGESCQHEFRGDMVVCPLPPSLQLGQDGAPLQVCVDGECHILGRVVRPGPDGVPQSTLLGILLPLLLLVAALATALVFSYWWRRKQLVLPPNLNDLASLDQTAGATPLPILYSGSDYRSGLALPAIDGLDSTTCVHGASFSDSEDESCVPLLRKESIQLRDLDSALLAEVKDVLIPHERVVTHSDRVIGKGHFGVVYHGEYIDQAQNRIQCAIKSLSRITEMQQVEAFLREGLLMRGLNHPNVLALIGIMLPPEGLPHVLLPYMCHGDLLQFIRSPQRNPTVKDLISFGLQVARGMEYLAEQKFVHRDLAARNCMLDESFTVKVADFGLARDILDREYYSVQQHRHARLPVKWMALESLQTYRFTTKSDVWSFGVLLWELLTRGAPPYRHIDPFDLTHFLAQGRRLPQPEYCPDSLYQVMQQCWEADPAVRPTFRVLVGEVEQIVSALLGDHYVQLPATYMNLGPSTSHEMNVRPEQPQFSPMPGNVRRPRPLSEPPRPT
Description: as §1, §2, §3, §4, §5, §6, §7, §8

BLK = molecular target: T5, BLK (Homo sapiens, UniProt P51451); assay: 33PanQinase panel; assay type: biochemical; conditions: read-out: Residual Activity (%)
T5 construct: purchased ProQinase
T5 sequence (P51451 whole entry): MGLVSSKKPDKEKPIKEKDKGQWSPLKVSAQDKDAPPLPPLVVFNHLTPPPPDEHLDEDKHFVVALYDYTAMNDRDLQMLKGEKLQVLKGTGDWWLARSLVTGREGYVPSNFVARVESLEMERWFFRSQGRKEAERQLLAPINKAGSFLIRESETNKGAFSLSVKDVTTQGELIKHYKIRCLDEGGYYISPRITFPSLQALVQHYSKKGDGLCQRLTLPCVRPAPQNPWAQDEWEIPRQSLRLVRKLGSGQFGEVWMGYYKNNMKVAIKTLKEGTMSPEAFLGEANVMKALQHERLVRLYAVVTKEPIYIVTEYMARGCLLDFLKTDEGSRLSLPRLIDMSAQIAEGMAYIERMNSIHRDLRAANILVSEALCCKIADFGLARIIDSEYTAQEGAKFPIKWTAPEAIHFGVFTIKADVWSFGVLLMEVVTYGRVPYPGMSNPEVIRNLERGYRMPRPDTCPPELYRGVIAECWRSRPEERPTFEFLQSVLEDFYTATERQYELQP
Description: as §1, §2, §3, §4, §5, §6, §7, §8

YES = molecular target: T6, YES (Homo sapiens, UniProt P07947); assay: 33PanQinase panel; assay type: biochemical; conditions: read-out: Residual Activity (%)
T6 construct: purchased ProQinase
T6 sequence (P07947 whole entry): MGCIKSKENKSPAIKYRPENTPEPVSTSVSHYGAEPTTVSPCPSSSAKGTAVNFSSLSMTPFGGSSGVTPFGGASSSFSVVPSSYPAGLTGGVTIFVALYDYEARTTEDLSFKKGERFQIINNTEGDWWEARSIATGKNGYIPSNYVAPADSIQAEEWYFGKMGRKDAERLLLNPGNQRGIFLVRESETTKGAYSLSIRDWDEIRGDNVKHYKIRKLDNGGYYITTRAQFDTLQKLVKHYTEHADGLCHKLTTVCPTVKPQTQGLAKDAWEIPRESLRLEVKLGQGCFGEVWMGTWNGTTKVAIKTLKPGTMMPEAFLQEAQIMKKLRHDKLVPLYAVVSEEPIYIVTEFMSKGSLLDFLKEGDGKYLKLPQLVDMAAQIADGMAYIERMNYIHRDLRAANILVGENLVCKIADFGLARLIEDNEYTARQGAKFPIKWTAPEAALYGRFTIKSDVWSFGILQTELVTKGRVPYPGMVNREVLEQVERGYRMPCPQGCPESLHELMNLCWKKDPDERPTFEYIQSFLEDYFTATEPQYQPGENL
Description: as §1, §2, §3, §4, §5, §6, §7, §8

MKK4 = molecular target: T7, MKK4 (Homo sapiens, UniProt P45985); assay: 33PanQinase panel; assay type: biochemical; conditions: MKK4, 1 µM; read-out: Residual Activity (%)
T7 construct: purchased ProQinase
T7 sequence (P45985 whole entry): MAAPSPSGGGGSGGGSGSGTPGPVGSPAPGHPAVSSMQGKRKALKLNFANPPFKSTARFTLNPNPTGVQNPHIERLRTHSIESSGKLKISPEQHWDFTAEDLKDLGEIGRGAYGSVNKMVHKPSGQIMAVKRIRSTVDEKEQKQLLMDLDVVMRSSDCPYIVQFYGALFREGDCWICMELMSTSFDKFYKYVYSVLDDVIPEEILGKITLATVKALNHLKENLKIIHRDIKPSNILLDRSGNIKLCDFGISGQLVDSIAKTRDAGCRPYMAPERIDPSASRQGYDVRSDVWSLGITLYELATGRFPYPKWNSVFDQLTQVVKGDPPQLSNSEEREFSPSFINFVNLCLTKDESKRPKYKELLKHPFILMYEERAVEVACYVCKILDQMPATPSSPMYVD
Description: as §1, §2, §3, §4, §5, §6, §7, §8

PDGFR-alpha = molecular target: T8, PDGFR-alpha (Homo sapiens, UniProt P16234); assay: 33PanQinase panel; assay type: biochemical; conditions: read-out: Residual Activity (%)
T8 construct: purchased ProQinase
Description: as §1, §2, §3, §4, §5, §6, §7, §8

HT-29 cells = assay: MTT cell viability assay HT-29; assay type: cell-based, human; conditions: Homo sapiens, HT-29, 48 h, mean ± SD
Description: The human colon adenocarcinoma cell line HT-29 was grown in McCoy’s 5A medium, whereas MCF7 cells were grown in DMEM medium. All media were supplemented with 10% fetal calf serum (FCS), 100 units/mL penicillin, 100 µg/mL streptomycin and 2 mM glutamine. All cells were grown at 37 °C in a humidified 5% carbon dioxide atmosphere.
In order to analyze the effects of selected inhibitors on the cell viability of HT-29 and MCF7 cells, MTT assays were performed. 1 × 10^4 cells/well were seeded in 96-well cell culture plates. After 24 h cells were treated with increasing concentrations of the indicated inhibitor compounds, with untreated and DMSO-treated cells as control. After an incubation period of 48 h, 10 µL of MTT solution (5 mg/mL in PBS) were added and cells were incubated for 4 h. MTT-containing medium was carefully removed and 100 µL acidic isopropanol (0.04 N HCl in isopropanol) per well were added. To dissolve formazan crystals, plates were shaken for 30 min on an orbital shaker in the dark. Finally, dissolved crystals were measured spectrophotometrically at 570 nm. All experiments were performed in triplicate with four technical replicates per assay. Results were normalized considering the mean optical density value of control wells as 100%. GraphPad Prism 6 software (San Diego, CA, USA) was used to calculate EC50 values.

[1] = molecular target: T9, human CK1δ transcription variant 1 (Homo sapiens, UniProt P48730); assay: in-vitro kinase assay CK1δ; assay type: biochemical; conditions: 10 µM ATP, mean ± SD, n = 3
T9 construct: made in house; own knowledge
From the text: Human CK1δ transcription variant 1 (CK1δ TV1_NM_001893.4) has been amplified from the cDNA obtained from HT1080 cell line, using CK1δ_forward-primer: 5′-GGATCCATGGAGCTGAGAGTCGGGAACAG-3′ and CK1δ_reverse primer: 5′-GGATCCTCATCGGTGCACGACAGACTGA-3′. The CK1δ DNA construct was cloned into pSC-A cloning vector (Agilent technologies, Munich, Germany) with BamHI enzyme, to generate plasmids pGEX6-P3-GST-CK1δ TV1 (FP1417). Overexpression and purification of GST-CK1δ TV1 protein has been performed as described before.
(§9) In vitro kinase assays have been performed to both screen, as well as to calculate IC50 values of the compounds for CK1δ and ε. Each reaction was carried out using 2 μCi ^32P-γ-ATP in kinase buffer containing 25 mM Tris-HCl (pH = 7.5), 10 mM MgCl2, 100 µM EDTA, and 10 µM ATP. […] Recombinant human CK1δ transcription variant 1 (expressed and purified as GST fusion protein as described earlier) and human GST-CK1ε (PV3500; Invitrogen) were used as sources of enzyme, while α-casein (C6780; Sigma-Aldrich) was used as substrate. Kinase reactions were incubated for 30 min at 30 °C and then stopped with loading dye (50 mM Tris-HCl (pH = 6.8), 5% (v/v) β-mercaptoethanol (MSH), 10% (v/v) glycerol, 2% (w/v) sodium dodecyl sulfate (SDS), 0.1% (w/v) bromphenol blue). Subsequently, reactions were separated by sodium dodecyl sulfate polyacrylamide gel electrophoresis (SDS-PAGE) and phosphorylated protein bands were visualized on dried gels by autoradiography. The phosphorylated substrate protein bands were excised, and phosphorylation was quantified by Cherenkov counting. Dose-response analyses and calculation of IC50 values were carried out using GraphPad Prism 6 statistical software (San Diego, CA, USA).

human GST-CK1ε = molecular target: T10, human GST-CK1ε (Homo sapiens, UniProt P49674); assay: in-vitro kinase assay CK1ε; assay type: biochemical; conditions: 10 µM ATP, mean ± SD, n = 3
T10 construct: purchased Invitrogen PV3500
T10 sequence (P49674 whole entry): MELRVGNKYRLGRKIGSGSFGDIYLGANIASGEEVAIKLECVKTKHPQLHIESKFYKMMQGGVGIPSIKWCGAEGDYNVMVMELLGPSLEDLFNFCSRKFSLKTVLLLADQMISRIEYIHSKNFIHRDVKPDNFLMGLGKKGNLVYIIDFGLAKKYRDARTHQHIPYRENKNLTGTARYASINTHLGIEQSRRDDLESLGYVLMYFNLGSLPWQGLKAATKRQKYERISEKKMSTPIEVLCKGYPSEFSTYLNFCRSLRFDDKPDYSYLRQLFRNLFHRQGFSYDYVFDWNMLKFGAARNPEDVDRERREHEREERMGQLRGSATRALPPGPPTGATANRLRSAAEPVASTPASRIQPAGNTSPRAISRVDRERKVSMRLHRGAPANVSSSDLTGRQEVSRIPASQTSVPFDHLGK
Description: as §9

T1 sequence (Q16620 32-822): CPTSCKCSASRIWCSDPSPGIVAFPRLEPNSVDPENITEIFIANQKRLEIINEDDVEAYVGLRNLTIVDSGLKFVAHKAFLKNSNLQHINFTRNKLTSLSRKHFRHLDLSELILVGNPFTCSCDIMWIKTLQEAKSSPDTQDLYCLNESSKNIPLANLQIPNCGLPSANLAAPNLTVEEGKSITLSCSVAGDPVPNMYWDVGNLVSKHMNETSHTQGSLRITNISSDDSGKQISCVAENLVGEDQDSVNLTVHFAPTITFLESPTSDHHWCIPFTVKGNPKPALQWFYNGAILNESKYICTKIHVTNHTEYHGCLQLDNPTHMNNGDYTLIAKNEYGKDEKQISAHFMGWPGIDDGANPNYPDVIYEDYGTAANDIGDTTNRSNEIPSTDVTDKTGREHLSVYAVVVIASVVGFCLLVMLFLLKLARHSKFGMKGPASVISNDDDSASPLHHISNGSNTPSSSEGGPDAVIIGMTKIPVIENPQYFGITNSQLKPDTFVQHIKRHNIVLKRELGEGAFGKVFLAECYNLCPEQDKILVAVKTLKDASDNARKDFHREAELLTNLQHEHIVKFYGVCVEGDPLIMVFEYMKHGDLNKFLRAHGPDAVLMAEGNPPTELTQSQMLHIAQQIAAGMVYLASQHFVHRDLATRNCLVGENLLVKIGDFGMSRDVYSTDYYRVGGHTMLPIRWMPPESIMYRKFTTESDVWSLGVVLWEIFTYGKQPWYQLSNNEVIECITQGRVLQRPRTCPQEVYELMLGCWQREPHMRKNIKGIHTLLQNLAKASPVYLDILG

How did the remaining activity at 1 µM (TRK-B) turn out when `COc1ccc(-c2cc(C(=O)Nc3cc(-c4c(-c5ccc(F)cc5)noc4C(C)C)ccn3)n(CC3NCC(O)C3O)c2)cc1` (stereo not shown) [29d] was run?
Its remaining activity at 1 µM is 120%.

What about the remaining activity at 1 µM (VEGF-R2) of the same molecule?
Its remaining activity at 1 µM is 110%.

And the remaining activity at 1 µM (MAP3K11)?
The remaining activity at 1 µM was 88%.

And the remaining activity at 1 µM (RON)?
The remaining activity at 1 µM was 115%.

What about the remaining activity at 1 µM (BLK) of the same molecule?
Its remaining activity at 1 µM is 110%.

And the remaining activity at 1 µM (YES)?
Its remaining activity at 1 µM is 126%.

What about the remaining activity at 1 µM (MKK4) of the same molecule?
The remaining activity at 1 µM was 109%.

What about the remaining activity at 1 µM (PDGFR-alpha) of the same molecule?
Its remaining activity at 1 µM is 89%.

And the viability at 5 µM (HT-29 cells; 5 µM)?
Its viability at 5 µM is 76 ± 13%.

And the viability at 10 µM (HT-29 cells; 10 µM)?
Its viability at 10 µM is 51 ± 8%.

And the viability at 20 µM (HT-29 cells; 20 µM)?
The viability at 20 µM was 14 ± 2%.

And the EC50 (HT-29 cells)?
Its EC50 is 8000 ± 1700 nM.

What about the IC50 [1] of the same molecule?
The IC50 was 0.038 ± 0.003 µM.

And the remaining activity at 10 µM ([1]; 10 µM compound, read-out: CK1δ Residual Activity [%] at 10 µM ± SD)?
Its remaining activity at 10 µM is 2.9 ± 0.3%.

And the IC50 (human GST-CK1ε)?
Its IC50 is 0.065 ± 0.012 µM.

And the remaining activity at 10 µM (human GST-CK1ε; 10 µM compound, read-out: CK1ε Residual Activity [%] at 10 µM ± SD)?
The remaining activity at 10 µM was 12 ± 2%.
